In publication PMC3100252, “A theoretical entropy score as a single value to express inhibitor selectivity” (BMC Bioinformatics, 2011):
Read-outs that look alike come from different tables or passages of the source.

Tests used:
[1] = system: 290 kinases (excluding mutants); format: binding; details: for Ka-Gini: Gini score calculated directly on Kas of the Ambit dataset (Kds of ref 5); for entropies (selectivity entropy, Ssel): calculated from Kds of the Ambit dataset (ref 5)
Excerpt: Having defined the entropy, we next investigated its performance relative to the most widely-used methods, on a public profiling dataset of 38 inhibitors on 290 non-mutant kinases (Table 1 and Additional file 1). […] To this we added a Ka-Gini value and the selectivity entropy. The Ka-Gini is a Gini score directly calculated on Kas, without reverting to %-inhibition values (see below). […] In addition, to get an overview of the profiling raw data, we appended an activity-based heat map (Uitdehaag_S1).
(§1) It is worth to note that the partition coefficient is the same as ϕl in our entropy equation (eq. 2).
The Gini score was calculated from data on %-inhibition. […] In addition, to work more directly with Kds, we also introduce a Ka-Gini score, in which association constants are used for rank-ordering the kinase profile. […] All calculations were done in Microsoft Excel. […]

[2] = system: 222 human kinases; assay: Millipore kinase profiling (radioactive filter binding activity assay at [ATP] = KM,ATP) and selectivity metrics calculated from it; format: biochemical; design: selectivity score: scale not given here; details: for Ka-Gini score / Pmax / S10x / selectivity score: calculated from Millipore activity data; for selectivity entropy: calculated from Millipore activity data (pEC50), [ATP] = KM,ATP
Excerpt: As a next step we selected 16 compounds from the public profile (Ambit), and measured activity data on these using a different profiling service (Millipore, data available as Additional file 2). […] Also for these new data, we calculated the selectivity metrics (Uitdehaag_S2). In the ideal case, the selectivity values are similar irrespective of profiling technology (in the same way that a Kd value is ideally independent of laboratory and assay format). The data of both methods are plotted in Figure 2.
as §1
The Gini score was calculated from data on %-inhibition. […] In addition, to work more directly with Kds, we also introduce a Ka-Gini score, in which association constants are used for rank-ordering the kinase profile. […] All calculations were done in Microsoft Excel.
For comparing profiles across methods (Figure 2), we selected 16 kinase inhibitors of the Ambit profile (Table 2) and submitted these to the kinase profiling service from Millipore (http://www.millipore.com/drugdiscovery/svp3/kpservices, data available as Additional file 2). Both profiling methods are described earlier and differ (among other variations) in the following way: Ambit uses a competitive binding setup in absence of ATP on kinases from T7 or HEK293 expression systems. Millipore uses a radioactive filter binding activity assay, with kinases purified from Escherichia coli or baculovirus expression systems.

[3] = system: 290 kinases (excluding mutants); details: cited from earlier work
[4] = Ambit dataset, 38 inhibitors on 290 non-mutant kinases, values taken from earlier work
[5] = Ambit dataset, fraction of kinases hit at 10 times the Kd of the target, values taken from earlier work
[6] = Ambit dataset, fraction of kinases hit below 3 μM, values taken from earlier work
[7] = Ambit dataset, values taken from earlier work
[8] = rank among 38 inhibitors, Ambit dataset

SMILES | Ka-Gini [1] | entropies (selectivity entropy, Ssel) ([1]; 290 kinases) | Ka-Gini score [2] | Pmax [2] | S10x [2] | Gini [3, 4] | S10x [3, 5] | Pmax (partition index) [3, 7] | other results
Cc1ccc(F)c(NC(=O)Nc2ccc(-c3cccc4[nH]nc(N)c34)cc2)c1 [ABT-869, linifanib] | 0.98 | 1.93 | 0.968 | 0.132 | 0.025 | 0.82 | 0.01 | 0.32 | selectivity score [2]: 0.235; selectivity entropy [2]: 2.834; S3uM (selectivity score S(3 μM)) [3, 6]: 0.16
CC1(C)CNc2cc(NC(=O)c3cccnc3NCc3ccncc3)ccc21 [AMG-706] | 0.97 | 2.36 |  |  |  | 0.82 | 0.04 | 0.22 | S3uM (selectivity score S(3 μM)) [3]: 0.09
CCN1CCN(Cc2ccc(NC(=O)Nc3ccc(Oc4cc(NC)ncn4)cc3)cc2C(F)(F)F)CC1 [AST-487] | 0.95 | 2.74 |  |  |  | 0.73 | 0.04 | 0.11 | S3uM (selectivity score S(3 μM)) [3, 6]: 0.45
CCN(CCO)CCCOc1ccc2c(Nc3cc(CC(=O)Nc4cccc(F)c4)[nH]n3)ncnc2c1 [AZD1152HQPA] | 0.98 | 1.91 | 0.993 | 0.603 | 0.007 | 0.78 | 0.02 | 0.34 | selectivity score [2]: 0.041; selectivity entropy [2]: 1.366; S3uM (selectivity score S(3 μM)) [3, 6]: 0.10
Cn1cnc2c(F)c(Nc3ccc(Br)cc3Cl)c(C(=O)NOCCO)cc21 [AZD6244] |  |  | 1.000 | 0.999 | 0.002 |  |  |  | selectivity entropy [2]: 0.020
Cc1ccc(-n2nc(C(C)(C)C)cc2NC(=O)Nc2ccc(OCCN3CCOCC3)c3ccccc23)cc1 [BIRB-796, doramapimod] | 0.99 |  | 0.984 | 0.440 | 0.011 | 0.81 |  |  | 
Cn1c(Nc2ccc(C(F)(F)F)cc2)nc2cc(Oc3ccnc(-c4ncc(C(F)(F)F)[nH]4)c3)ccc21 [CHIR265] | 0.96 |  | 0.982 | 0.304 | 0.014 | 0.74 |  |  | 
CN1CCN(c2ccc3nc(-c4c(N)c5c(F)cccc5[nH]c4=O)[nH]c3c2)CC1 [CHIR-258] | 0.97 |  |  |  |  | 0.76 | 0.01 |  | 
C=CC(=O)Nc1cc2c(Nc3ccc(F)c(Cl)c3)ncnc2cc1OCCCN1CCOCC1 [CI-1033] | 0.99 |  |  |  |  | 0.72 |  |  | 
C[C@@H]1CCN(C(=O)CC#N)C[C@@H]1N(C)c1ncnc2[nH]ccc12 [CP-690550, tasocitinib] |  |  | 0.995 | 0.481 | 0.005 | 0.66 |  |  | 
COCC(=O)NC/C=C/c1ccc2ncnc(Nc3ccc(Oc4ccc(C)nc4)c(C)c3)c2c1 [CP-724714] | 0.99 | 1.10 |  |  |  | 0.49 | 0.01 | 0.33 | S3uM (selectivity score S(3 μM)) [3, 6]: 0.02
Cc1nc(Nc2ncc(C(=O)Nc3c(C)cccc3Cl)s2)cc(N2CCN(CCO)CC2)n1 [Dasatinib, dasatinib] | 0.93 |  | 0.943 | 0.041 | 0.070 | 0.79 |  |  | 
CCOc1cc2ncc(C#N)c(Nc3ccc(F)c(Cl)c3)c2cc1NC(=O)/C=C/CN(C)C [EKB-569] | 0.99 | 0.89 |  |  |  | 0.78 | 0.00 | 0.67 | S3uM (selectivity score S(3 μM)) [3, 6]: 0.18
C#Cc1cccc(Nc2ncnc3cc(OCCOC)c(OCCOC)cc23)c1 [Erlotinib] | 0.99 | 0.88 |  |  |  | 0.75 | 0.00 | 0.67 | S3uM (selectivity score S(3 μM)) [3]: 0.15
CN1CC[C@H](c2c(O)cc(O)c3c(=O)cc(-c4ccccc4Cl)oc23)[C@H](O)C1 [Flavopiridol] | 0.95 |  |  |  |  | 0.77 |  |  | 
COc1ccc(COc2ccc(Cc3cnc(N)nc3N)cc2OC)cc1 [GW-2580] | 0.99 | 0.26 |  |  |  | 0.54 | 0.00 | 0.92 | S3uM (selectivity score S(3 μM)) [3, 6]: 0.01

SMILES | Ka-Gini [1] | entropies (selectivity entropy, Ssel) ([1]; 290 kinases) | Ka-Gini score [2] | Pmax [2] | S10x [2] | Gini [3, 4] | S10x [3, 5] | Pmax (partition index) [3, 7] | other results
Cc1ccc(Nc2nccc(N(C)c3ccc4c(C)n(C)nc4c3)n2)cc1S(N)(=O)=O [GW-786034] | 0.97 | 2.06 |  |  |  | 0.80 | 0.02 | 0.33 | S3uM (selectivity score S(3 μM)) [3, 6]: 0.21
COc1cc2ncnc(Nc3ccc(F)c(Cl)c3)c2cc1OCCCN1CCOCC1 [Gefitinib] |  |  |  |  |  | 0.65 |  |  | 
Cc1ccc(NC(=O)c2ccc(CN3CCN(C)CC3)cc2)cc1Nc1nccc(-c2cccnc2)n1 [Imatinib, imatinib] |  |  |  |  |  |  |  |  | Gini [3]: 0.79; S10x [3]: 0.02
Nc1nc(Nc2ccc(S(N)(=O)=O)cc2)nn1C(=O)c1c(F)cccc1F [JNJ-7706621] | 0.87 | 3.73 |  |  |  | 0.74 | 0.08 | 0.10 | S3uM (selectivity score S(3 μM)) [3]: 0.37
CN(C)C[C@@H]1CCn2cc(c3ccccc32)C2=C(C(=O)NC2=O)c2cn(c3ccccc23)CCO1 [LY-333531] | 0.98 |  |  |  |  | 0.76 |  |  | 
CS(=O)(=O)CCNCc1ccc(-c2ccc3ncnc(Nc4ccc(OCc5cccc(F)c5)c(Cl)c4)c3c2)o1 [Lapatinib] | 0.99 |  |  |  |  | 0.57 |  |  | 
O=C(NOC[C@H](O)CO)c1ccc(F)c(F)c1Nc1ccc(I)cc1F [PD-0325901] |  |  | 1.000 | 0.857 | 0.002 |  |  |  | selectivity score [2]: 0.005; selectivity entropy [2]: 0.550
CO[C@@H]1[C@H](N(C)C(=O)c2ccccc2)C[C@H]2O[C@]1(C)n1c3ccccc3c3c4c(c5c6ccccc6n2c5c31)C(=O)NC4 [PKC-412] | 0.88 |  |  |  |  | 0.71 |  |  | 
Clc1ccc(Nc2nnc(Cc3ccncc3)c3ccccc23)cc1 [PTK-787] |  |  |  |  |  |  |  |  | Gini [3]: 0.71
Oc1ccc(-c2nc(-c3ccncc3)c(-c3ccc(F)cc3)[nH]2)cc1 [SB-202190] | 0.97 | 2.08 |  |  |  | 0.76 | 0.02 | 0.35 | S3uM (selectivity score S(3 μM)) [3]: 0.09
C[S+]([O-])c1ccc(-c2nc(-c3ccncc3)c(-c3ccc(F)cc3)[nH]2)cc1 (stereo not shown) [SB-203580] |  |  | 0.987 | 0.342 | 0.016 | 0.77 | 0.02 |  | 
NC(=O)c1ccc(-c2nc(-c3ccc4c(c3)OCO4)c(-c3ccccn3)[nH]2)cc1 [SB-431542] | 0.98 | 1.56 |  |  |  | 0.42 | 0.01 | 0.14 | number of kinases inhibited below 3 μM ([1]; Ambit profile, 290 kinases): 5 kinases; selectivity rank by Ka-Gini [1, 8]: 15; selectivity rank by Pmax [1, 8]: 31; selectivity rank by selectivity entropy [1, 8]: 14; S3uM (selectivity score S(3 μM)) [3, 6]: 0.02; IC50 ([3]; Ambit profile, four kinases not named, read-out: IC50s on the four kinases hit with very similar IC50s): 100 to 300 nM
CC(C)(C)c1cnc(CSc2cnc(NC(=O)C3CCNCC3)s2)o1 [SNS-032] | 0.97 |  |  |  |  |  |  |  | 
CN[C@@H]1C[C@H]2O[C@@](C)([C@@H]1OC)n1c3ccccc3c3c4c(c5c6ccccc6n2c5c31)C(=O)NC4 [Staurosporine] |  |  |  |  |  | 0.35 | 0.50 |  | 
Cc1cn(-c2cc(NC(=O)c3ccc(C)c(Nc4nccc(-c5cccnc5)n4)c3)cc(C(F)(F)F)c2)cn1 [nilotinib] |  |  | 0.980 | 0.208 | 0.027 |  |  |  | selectivity score [2]: 0.095; selectivity entropy [2]: 2.360
